According to US20250361214A1, “TRIAZINE LIPIDS, LIPID SYNTHESIS, AND METHODS FOR INHIBITING CANONICAL NFKB TRANSCRIPTIONAL ACTIVITY” (University of Kentucky Research Foundation, priority 2022, published 2025):
Where two headings read alike, the source gives them in different places.

Assays:
[1] = Differential scanning calorimetry, transition temperature (Tm) of lipids; assay type: physicochemical; conditions: liposomes of pure lipid, 10 mM in 20 mM HEPES, DSC
Description: Differential Scanning calorimetery. The transition temperature (Tm) of the lipids was determined using a multicell differential scanning calorimeter (TA Instruments). Liposomes were made with triazine lipids at a concentration of 10 mM in 20 mM HEPES buffer. These were heated to 60° C. and sonicated until the solution was translucent. For Tm determination, 250 μL of the liposome solution was transferred into reusable hastelloy ampoules while 250 μL of the HEPES solution was transferred to the third ampoule, leaving the reference ampoule empty. […] Data was collected over a range of 10-110° C. at a rate of 2° C. min-1 in a heat-cool-heat cycle. After the run was complete, the CpCalc 2.1 software package was used to convert the raw data into a molar heat capacity and the data from the second heating cycle were processed using Microsoft Excel.

[2] = Size and charge determination of nanoparticles (Zetasizer Nano ZS), Example 1; assay type: physicochemical
Excerpt: Size and Charge Determination.

[3] = system: bone marrow derived macrophages; assay: in vitro; assay type: cell-based
Description: (§1) Cell Culture of Bone Marrow-Derived Macrophages. […] After 7 days, the cells were transferred to tissue culture 96 well plates (Corning) at a density of 100,000 in 20 μL of medium and allowed to settle overnight for subsequent assays.
(§2) Lactate Dehydrogenase Release (LDH) Toxicity Assay. For determination of cytotoxicity, mature bone marrow-derived macrophages (BMDM) were treated with 20 μL of the lipids (concentrations denoted in figure legend) diluted in 20 mM HEPES buffer, with HEPES buffer as negative control and 10% Triton X-100 as positive control. After 24 hours, the 96 well plates were centrifuged at 200×g for 5 minutes to remove debris and 100 μL of media was transferred to an untreated flat-bottom 96 well plate. Next, 100 μL of LDH reaction reagent purchased from Cayman Chemical (Ann Arbor, MI) was added to each and allowed to sit for 30 minutes at 37° C. Absorbance at 490 and 680 nm were measured using a BioTek Synergy H1 plate reader and the data were processed using Microsoft Excel. Mean values from triplicates are shown for one of two independent experiments.

canonical NFKB = assay: THP-1-Blue NFKB reporter (SEAP) assay; assay type: cell-based, human; conditions: read-out: IC50, canonical NFKB inhibition
BALB/c mice [4] = assay: In vivo hAAT transfection efficiency, serum ELISA and ALT; design: species or system mouse; conditions: LPs (50% cationic lipid, 50% DOPE), 10,000 ng hAAT plasmid DNA i.p., 72 hours
Description: To assess in vivo hAAT transfection efficiency, mice were administered 200 μL nanoparticles or PBS vehicle i.p. at the doses indicated in the figure legend. Seventy-two hours after injection the mice were bled again for assessment of ALT levels and hAAT expression. hAAT levels were determined via ELISA using serum diluted 1:1 in PBS containing 0.05% casein (PBS-C; 124250; Beantown Chemical), as described previously.^38

[5] = Characterization of nanoparticles (size, zeta potential, DNA encapsulation), Example 2; assay type: physicochemical; conditions: LNPs made with the cationic lipid
Description: The concentration of DNA in LNPs after dialysis was quantified using an AccuClear® Ultra High Sensitivity dsDNA Quantification Kit (Biotium #31027) and quantified on a BioTek Synergy H1 plate reader. Encapsulation efficiencies were determined by comparing the amount of DNA in the LNP solution vs. the DNA solution used to make them, after disrupting the LNPs with 0.5% Cl2E10 (Abcam #ab146563) and adjusting for volume differences (i.e.: excess volume added during dialysis and dilution volume during ethanol mixture).

BALB/c mice [6] = assay: Anti-hAAT antibody titers and IgG subclass ratios; assay type: in vivo, mouse; conditions: for increase of anti-hAAT titers: 25 μg hAAT protein administered with 1 mM lipid, day 14
Description: To assess the presence of antibodies toward hAAT, 50 μL of hAAT (OriGene #RG202082) was plated at 2 μg/mL in carbonate buffer, pH 9.7, on a 96 well high binding plate (Greiner #82050-720) and incubated overnight at 4° C. The next day, the plates were washed with PBS containing 0.1% Tween-20 (PBS-T) and blocked for 1 hour with PBS-C at 37° C. After blocking, serum samples were plated at dilutions ranging from 1:100 to 1:1,000,000 and incubated at 37° C. for 2 hours. Secondary antibody (goat anti-mouse IgG HRP; Invitrogen #16066) diluted 1:2000 was applied for 30 min at 37° C., followed by a 30 min. incubation with tetramethylbenzidine (Rockland). Absorbance at 450 nm was recorded using a BioTek Synergy H1 microplate reader. Reciprocal endpoint titers were determined by plotting A450 values versus known dilutions, calculating the slope of that line, and dividing the slope by two times the average of the blank (no serum) wells.
Anti-hAAT IgG subclass ratios were assessed as described above, using a single 1:100 sample dilution and the following detection antibodies: goat anti-mouse IgG1-HRP (Abcam ab98693) at 1:10,000, IgG2a-HRP (Abcam ab98698) at 1:5000, IgG2b-HRP (Abcam ab98703) at 1:10,000 and IgG3 (Jackson 115-035-209) at 1:5000. Subclass ratios were calculated by dividing the absorbance of each subclass by that of IgG1 for each individual mouse.

C57BL/6J mice = assay: In vivo toxicity of cationic lipid nanoparticles (ALT, IL-6, SCr, mortality)
HeLa cells = assay: Transfection of luciferase plasmid; assay type: cell-based
Description: Transfection of Luciferase Plasmid and Cell Viability. HeLa cells cultured in EMEM (ATCC) supplemented with 10% fetal bovine serum were transferred to a 96 well plate, in quadruplicate, at a density of 20,000 cells per well and incubated for 24 hours at 37° C. in 5% CO2. Liposomes made with a 1:1 ratio of DOPE and TZ lipid were added to 200 ng pGL3 Luciferase Reporter Vector (Promega) at N:P ratios of 2.5, 5 and 10, and incubated at 37° C. for 10 minutes before being diluted in 100 μL of nonsupplemented EMEM and added to the cells. Following a four hour incubation at 37° C., the media was changed, and the cells were incubated for another twenty hours, at which point the cells were lysed with a cell culture lysis reagent at pH 7.8 composed of 25 mM Tris-phosphate buffer, 0.7 g L^−1 1,2-diaminocyclohexane, 10% glycerol, 1% Triton X-100, and 1% protease inhibitor cocktail (Millipore). Total protein content was determined with a bicinchoninic acid assay (G-Biosciences) and luciferase protein expression was quantified by a luciferase assay (Promega). Cell viability was assessed using a Cell Titer Blue assay kit (Promega) based on the manufacturer's instructions. In each of the three independent experiments performed, transfection was compared with cells treated with Lipofectamine 3000 (Thermo), following the manufacturer's instructions, and with DNA treated cells.

in vitro = assay type: cell-based; conditions: female, C57BL/6J, mouse
Description: as §1, §2

[7] = Nanoparticle pKa via TNS fluorescence; assay type: physicochemical; conditions: liposomes, pH 2.5 to 12
Description: Determination of Nanoparticle pKa via TNS Fluorescence. […] The solutions were mixed by pipetting and incubated at room temperature for 10 minutes, before being analysed for fluorescence intensity using a 321 nm excitation and 445 nm emission wavelengths.

[8] = nanoparticles of pure lipid (Table 1)
[9] = nanoparticles of pure lipid, 1 mM, 25° C. (Table 1)
[10] = zeta potential, nanoparticles of pure lipid (Table 1)
[11] = liposomes, lipid:DOPE mixtures, lipoplexes, immunization liposomes (Table 2)
[12] = 20 mM lipid, i.p., versus baseline
[13] = unstable nanoparticles of lipids 11 and 12, text

Tm [1] [°C] | PDI [2, 8] | Size [2, 9] | Charge [2, 10] [mV] | IC50 [3] [µM] | SMILES | also measured
40 | 0.27 ± 0.01 | 93 ± 2 nm | −71 ± 5 | 988 | CCCCCCCCCCCCCCCCCCN(CCCCCCCCCCCCCCCCCC)c1nc(NCCS)nc(NCCC(=O)O)n1 [Lipid 6] | 
 |  |  |  |  | CCCCCCCCCCCCCC(=O)OC[C@H](COP(=O)([O-])OCC[N+](C)(C)C)OC(=O)CCCCCCCCCCCCC [DMPC, 1,2-Dimyristoyl-sn-glycero-3-phosphocholine, reference compound] | PDI ([2]; Table 2): 0.39 ± 0.01; Size [2, 11]: 277 ± 45 nm; Charge ([2]; zeta potential (Table 2)): −9 ± 0.3 mV; LD50 ([3]; LDH activity, BMDMs incubated 24 hours, text of Example 3): 969 µM; LD50 ([3]; LDH release, 24 hours (Table 2)): 969 µM
 |  |  |  |  | CCCCCCCC/C=C\CCCCCCCC(=O)OCC(C[N+](C)(C)C)OC(=O)CCCCCCC/C=C\CCCCCCCC.[Cl-] (stereo not drawn) [DOTAP, 1,2-dioleoyl-3-trimethylammonium propane, reference compound] | IC50 (canonical NFKB; Homo sapiens, 24 h): 28 µM; average hAAT levels in serum (BALB/c mice [4]): 3 ng/mL; encapsulation of DNA (general) [5]: 70-80%; increase of anti-hAAT titers (BALB/c mice [6]): 10 fold; anti-hAAT IgG titers (BALB/c mice [6]; transgene delivery, 10 μg hAAT DNA, day 14, versus untreated mice): significantly higher anti-hAAT titers than untreated mice; Th1/Th2 response (ratios of IgG2a, 2b, and 3 over IgG1) (BALB/c mice [6]; transgenic hAAT delivery with LPs): balanced Th1/Th2 response; interleukin 6 (IL-6) (C57BL/6J mice; [12]): neither these nor the IL-6 elevation in DOTAP-treated mice reached statistical significance
42 | Unstable Unstable | Unstable Unstable | 70 ± 5 | 227 | CCCCCCCCCCCCCCCCCCN(CCCCCCCCCCCCCCCCCC)c1nc(NCCCN)nc(NCCC(=O)O)n1 [Lipid 12] | PDI [2, 13]: 0.51
 |  |  |  |  | CCCCCCCC/C=C\CCCCCCCCOCC(C[N+](C)(C)C)OCCCCCCCC/C=C\CCCCCCCC (stereo not drawn) [DOTMA, 1,2-di-O-octadecenyl-3-trimethylammonium propane, reference compound] | PDI ([2]; Table 2): 0.43 ± 0.06; Size [2, 11]: 105 ± 2 nm; Charge ([2]; zeta potential (Table 2)): 70 ± 4 mV
< 10 | Unstable Unstable | Unstable Unstable | 42 ± 5 | 277 | CCCCCCCCCCCCN(CCCCCCCCCCCC)c1nc(NCCCN)nc(NCCC(=O)O)n1 [Lipid 11] | PDI [2, 13]: 0.98
 |  |  |  |  | CCCCCCCCCCCCCCCCCC(=O)OC[C@@H](COP(=O)([O-])OCC[N+](C)(C)C)OC(=O)CCCCCCCCCCCCCCCCC (stereo in doubt) [DSPC, 1,2-distearoyl-sn-glycero-3-phosphocholine, reference compound] | increase of anti-hAAT titers (BALB/c mice [6]): 100 fold
< 10 | 0.40 ± 0.00 | 87 ± 2 nm | −73 ± 6 | 679 | CCCCCCCCCCCCN(CCCCCCCCCCCC)c1nc(NCCS)nc(NCCC(=O)O)n1 [Lipid 5] | 
< 10 | 0.24 ± 0.02 | 124 ± 2 nm | −63 ± 4 | 1100 | CCCCCCCCCCCCN(CCCCCCCCCCCC)c1nc(NCCC(=O)O)nc(NCCC(=O)O)n1 [Lipid 1] | 

SMILES | Tm [1] [°C] | PDI [2, 8] | Size [2, 9] | Charge [2, 10] [mV] | IC50 [3] [µM] | also measured
CCCCCCCCCCCCCCCCCCN(CCCCCCCCCCCCCCCCCC)c1nc(NCCCN(C)C)nc(NCCCN(C)C)n1 [Lipid 10] | 28 | 0.28 ± 0.01 | 186 ± 1 nm | 47 ± 1 |  | IC50 ([3]; LDH release, 24 hours (Table 1), read-out: ID50 (the source's name)): 261 µM
CCCCCCCCCCCCN(CCCCCCCCCCCC)c1nc(NCCCN(C)C)nc(NCCCN(C)C)n1 [Lipid 9] | < 10 | 0.24 ± 0.00 | 159 ± 1 nm | 45 ± 2 |  | plasmid transfection (luciferase) (HeLa cells; TZ lipid:DOPE 1:1, compared with naked plasmid): better efficacy than the lipids with C18 tails; luciferase expression (HeLa cells; average, lipid 9:DOPE 1:1 at an N:P ratio of 5, 200 ng pGL3): 462 RLU per mg; IC50 at 24 h (in vitro): 337 µM; LD50 ([3]; female, C57BL/6J, mouse, 24 h): 337000 µM; deaths (C57BL/6J mice; 10 mM lipid, i.p.): one mouse dying; interleukin 6 (IL-6) (C57BL/6J mice; 10 mM lipid, i.p.): statistically significant increases; serum alanine aminotransferase (ALT) (C57BL/6J mice; 10 mM lipid, i.p.): statistically significant increases; deaths (C57BL/6J mice; 20 mM lipid, i.p.): three of the ten mice in this group died; interleukin 6 (IL-6) (C57BL/6J mice; [12]): significant elevations; serum alanine aminotransferase (ALT) (C57BL/6J mice; [12]): significant elevations; serum creatinine (SCr) (C57BL/6J mice; [12]): elevated but did not reach statistical significance; in vivo toxicity (overall) (C57BL/6J mice; 100 μL cationic lipid nanoparticles i.p.): confers significant toxicity and mortality; visual examination of internal organs (C57BL/6J mice; 72 hours, 10 and 20 mM): significant inflammation and swelling throughout the intestines and abdominal cavity
CCCCCCCCCCCCCCCCCCN(CCCCCCCCCCCCCCCCCC)c1nc(NCCCN)nc(NCCCN)n1 [Lipid 4] | 33 | 0.28 ± 0.00 | 326 ± 1 nm | 63 ± 3 | 180 | IC50 (canonical NFKB; THP-1-Blue cells stimulated with TNFα, 24 h lipid treatment): 29 µM; pKa [7]: 5.59
